# Assay results published in patent publication US20250304623A1, “PEPTIDES FOR INTRACELLULAR DELIVERY” (UNIVERSIDADE DE SANTIAGO DE COMPOSTELA, priority 2022, published 2025).
# *: point of attachment. NHNH2 = NN*
# Experiments:
# Assay type in all cases: cell-based
# [1] = system: A549 cells expressing EGFP; experiment: EGFP-targeting siRNA delivery (GFP silencing vs siMOCK), A549; settings: A549 cells
# Experimental: (§1) To generate an EGFP expressing HeLa cell line, HeLa cells were transfected with EGFP pDNA (pEGFP-C1, Clontech) and stable transfectants were selected with 400 μg/mL of G-418 (Millipore). Green clones were selected by epifluorescence microscopy and tested for EGFP expression stability through several passages. […] All other EGFP-expressing cell lines were obtained in a similar way from parent non-EGFP-expressing cell lines.
# (§2) Cells expressing EGFP were seeded in a 96 well plate the day before the experiment at a concentration of 50,000 cell/mL (100 μL/w) in DMEM+10% FBS+1% Gln-Abt. For robotic library screening, the delivery of an EGFP-targeting siRNA (EGFP: enhanced green fluorescent protein, Ambion® Silencer® GFP Positive Control siRNA (siGFP) (AM4626)) in six different cell lines expressing EGFP was performed. […] The mixture was shaken for 30 min at room temperature (rt) before the addition to the cells. The cell medium was aspirated, and cells were washed twice with PBS. Finally, 50 μL of the solution of siRNA/amphiphile complexes were added to the cells and incubated for 4 h. After transfection, the medium was replaced by 100 μL of fresh DMEM supplemented with 10% FBS. The fluorescence knockdown was quantified after 72 h in a plate reader, by comparison with cells transfected with a non-targeting siRNA control (siMOCK, Silencer™ Negative Control No. 1 siRNA (siMOCK) (AM4611)). EGFP knockdown was compared with Lipofectamine® RNAiMAX silencing efficiency (30-60% depending on cell line, defined with a numeric value in the below tables). All experiments were done in triplicate.
# (§3) Tables 1-7: RLuc (pDNA) or EGFP (mRNA) expression levels were normalized to Lipofectamine reagents (value=1) and expressed as fold-times signal increase. In the case of siRNA, the siRNA treated cells fluorescence was compared with siMOCK control fluorescence, while Cas9-RNP mediated knockout was measured against the fluorescence of untreated cells. In both siRNA and Cas9-RNP, values are expressed as % fluorescence reduction. Amphiphile concentration was 5 μM in all cases. All experiments were performed in triplicate.
# (§4) Tables 20-25 show the mean (triplicates) percentage of GFP-silencing, accounted by fluorescence intensity decrease relative to a non-targeting siRNA (siMOCK) control, measured after the transfection of siRNA by different amphiphiles at different concentrations in a variety of cell lines. Background values, accounted by untreated control cells, were subtracted for processing.
# [2] = system: ARPE19 cells expressing EGFP; experiment: EGFP-targeting siRNA delivery (GFP silencing vs siMOCK), ARPE19
# Experimental: as §1, §2, §3, §4
# [3] = system: Hek293 cells expressing EGFP; experiment: EGFP-targeting siRNA delivery (GFP silencing vs siMOCK), Hek293
# Experimental: as §1, §2, §3, §4
# [4] = system: A549 cells expressing EGFP; experiment: Cas9-RNP delivery against EGFP (gene editing, plate reader), A549; settings: A549 cells
# Experimental: as §1
# Cells expressing EGFP were seeded in a 96 well plate the day before the experiment at a concentration of 50,000 cell/mL (100 μL/w) in DMEM+10% FBS+1% Gln-Abt. For robotic library screening, the delivery of Cas9-RNP against EGFP (RNP designed to knock-out the gene encoding for the enhanced green fluorescent protein (EGFP)) was performed. For RNP assembly, 9.2 μL of crRNA and 9.2 μL of tracrRNA were mixed in 211.6 μL of Nuclease-Free Duplex Buffer (IDT), incubated for 5 min at 95° C. and slowly cooled at rt (see I. Lostalé-Seijo, et al. Peptide/Cas9 nanostructures for ribonucleoprotein cell membrane transport and gene edition, Chem. Sci., 2017). Cas9 protein was dissolved in DMEM at a final concentration of 4 μM and equal volumes of the RNA complex and Cas9 were mixed and incubated for 5 min at rt. 75 μL of the corresponding amphiphile concentrations were added to 5 μL of RNP at 2 μM. The mixture was shaken for 30 min at room temperature before the addition to the cells. The cell medium was aspirated, and cells were washed twice with PBS. Cells were covered with 30 μL of DMEM and 20 μL of the RNP/amphiphile complexes were added to the cells (final peptide concentrations=2.5, 5 and 10 μM; final Cas9-RNP concentration=50 nM) and incubated for 4 h. After the incubation, the medium was replaced by 100 μL of fresh DMEM supplemented with 10% FBS. The total EGFP fluorescence was quantified after 72 h in a plate reader (FIG. 2, Table 1 (right) and Table 6). All experiments were done in triplicate.
# as §3
# Tables 26-31 show the mean (triplicates) percentage of gene editing, accounted by GFP fluorescence intensity decrease (% of reduction), measured after the transfection of Cas9-RNP by different amphiphiles at different concentrations in a variety of cell lines. Background values, accounted by untreated control cells, were subtracted for processing.
substance,measurement,setting,value
"Ac-RHLK*RLK*RRLK*RL-NH2 (Ac-RHLKRLKRRLKRL-NH2; not fully specified (residues 4, 7, 11); printed as Ac-RHLK*RLK*RRLK*RL-NH2; also: linker on K* not given here) [13(Arg-His)]",percentage of GFP-silencing relative to siMOCK,"[1]; Dodecanal, 10 μM",28%
same,percentage of GFP-silencing relative to siMOCK,"[1]; Dodecanal, 15 μM",18%
same,percentage of GFP-silencing relative to siMOCK,"[1]; Myristoleyl, 10 μM",17%
same,percentage of GFP-silencing relative to siMOCK,"[1]; Myristoleyl, 15 μM",5%
same,percentage of GFP-silencing relative to siMOCK,"[1]; Oleyl, 5 μM",23%
same,percentage of GFP-silencing relative to siMOCK,"[1]; Oleyl, 10 μM",22%
same,percentage of GFP-silencing relative to siMOCK,"[1]; Oleyl, 15 μM",15%
same,percentage of GFP-silencing relative to siMOCK,"[1]; Palmitoleyl, 15 μM",14%
same,percentage of GFP-silencing relative to siMOCK,"[1]; Petroselinyl, 10 μM",20%
same,percentage of GFP-silencing relative to siMOCK,"[1]; Petroselinyl, 15 μM",11%
same,percentage of GFP-silencing relative to siMOCK,"[2]; Dodecanal, 5 μM",60%
same,percentage of GFP-silencing relative to siMOCK,"[2]; Dodecanal, 10 μM",54%
same,percentage of GFP-silencing relative to siMOCK,"[2]; Dodecanal, 15 μM",34%
same,percentage of GFP-silencing relative to siMOCK,"[2]; Myristoleyl, 10 μM",0%
same,percentage of GFP-silencing relative to siMOCK,"[2]; Myristoleyl, 15 μM",14%
same,percentage of GFP-silencing relative to siMOCK,"[2]; Oleyl, 10 μM",29%
same,percentage of GFP-silencing relative to siMOCK,"[2]; Oleyl, 15 μM",31%
same,percentage of GFP-silencing relative to siMOCK,"[2]; Palmitoleyl, 5 μM",51%
same,percentage of GFP-silencing relative to siMOCK,"[2]; Palmitoleyl, 10 μM",−6%
same,percentage of GFP-silencing relative to siMOCK,"[2]; Palmitoleyl, 15 μM",7%
same,percentage of GFP-silencing relative to siMOCK,"[2]; Petroselinyl, 5 μM",42%
same,percentage of GFP-silencing relative to siMOCK,"[2]; Petroselinyl, 10 μM",24%
same,percentage of GFP-silencing relative to siMOCK,"[2]; Petroselinyl, 15 μM",26%
same,percentage of GFP-silencing relative to siMOCK,"[3]; Dodecanal, 5 μM",24%
same,percentage of GFP-silencing relative to siMOCK,"[3]; Dodecanal, 10 μM",39%
same,percentage of GFP-silencing relative to siMOCK,"[3]; Dodecanal, 15 μM",44%
same,percentage of GFP-silencing relative to siMOCK,"[3]; Myristoleyl, 10 μM",48%
same,percentage of GFP-silencing relative to siMOCK,"[3]; Myristoleyl, 15 μM",25%
same,percentage of GFP-silencing relative to siMOCK,"[3]; Oleyl, 10 μM",39%
same,percentage of GFP-silencing relative to siMOCK,"[3]; Oleyl, 15 μM",47%
same,percentage of GFP-silencing relative to siMOCK,"[3]; Petroselinyl, 5 μM",30%
same,percentage of GFP-silencing relative to siMOCK,"[3]; Petroselinyl, 10 μM",5%
same,percentage of GFP-silencing relative to siMOCK,"[3]; Petroselinyl, 15 μM",18%
same,"percentage of gene editing, GFP fluorescence intensity decrease (% of reduction)","[4]; Dodecanal, 5 μM",27%
same,"percentage of gene editing, GFP fluorescence intensity decrease (% of reduction)","[4]; Dodecanal, 10 μM",18%
same,"percentage of gene editing, GFP fluorescence intensity decrease (% of reduction)","[4]; Myristoleyl, 5 μM",5%
same,"percentage of gene editing, GFP fluorescence intensity decrease (% of reduction)","[4]; Myristoleyl, 10 μM",9%
same,"percentage of gene editing, GFP fluorescence intensity decrease (% of reduction)","[4]; Oleyl, 5 μM",20%
same,"percentage of gene editing, GFP fluorescence intensity decrease (% of reduction)","[4]; Oleyl, 15 μM",15%
same,"percentage of gene editing, GFP fluorescence intensity decrease (% of reduction)","[4]; Palmitoleyl, 5 μM",15%
same,"percentage of gene editing, GFP fluorescence intensity decrease (% of reduction)","[4]; Palmitoleyl, 10 μM",10%
same,"percentage of gene editing, GFP fluorescence intensity decrease (% of reduction)","[4]; Palmitoleyl, 15 μM",22%
same,"percentage of gene editing, GFP fluorescence intensity decrease (% of reduction)","[4]; Petroselinyl, 5 μM",29%
"Ac-RK*LRK*K*L-NH2 (Ac-RK(NHNH2)LRK(NHNH2)K(NHNH2)L-NH2; not fully specified; printed as Ac-RK*LRK*K*L-NH2; also: K*2,K*5,K*6: native or modified lysine (ε-amide to a linker)) [Peptide 7.3]",percentage of GFP-silencing relative to siMOCK,"[1]; Dodecanal, 5 μM",7%
same,percentage of GFP-silencing relative to siMOCK,"[1]; Dodecanal, 10 μM",22%
same,percentage of GFP-silencing relative to siMOCK,"[1]; Dodecanal, 15 μM",19%
same,percentage of GFP-silencing relative to siMOCK,"[1]; Oleyl, 5 μM",3%
same,percentage of GFP-silencing relative to siMOCK,"[1]; Oleyl, 15 μM",7%
same,percentage of GFP-silencing relative to siMOCK,"[1]; Petroselinyl, 10 μM",13%
same,percentage of GFP-silencing relative to siMOCK,"[2]; Dodecanal, 5 μM",15%
same,percentage of GFP-silencing relative to siMOCK,"[2]; Dodecanal, 10 μM",35%
same,percentage of GFP-silencing relative to siMOCK,"[2]; Dodecanal, 15 μM",45%
same,percentage of GFP-silencing relative to siMOCK,"[2]; Palmitoleyl, 15 μM",−5%
same,percentage of GFP-silencing relative to siMOCK,"[3]; Myristoleyl, 5 μM",29%
same,percentage of GFP-silencing relative to siMOCK,"[3]; Oleyl, 5 μM",26%
same,percentage of GFP-silencing relative to siMOCK,"[3]; Palmitoleyl, 15 μM",19%
same,percentage of GFP-silencing relative to siMOCK,"[3]; Petroselinyl, 15 μM",3%
same,"percentage of gene editing, GFP fluorescence intensity decrease (% of reduction)","[4]; Dodecanal, 10 μM",−2%
same,"percentage of gene editing, GFP fluorescence intensity decrease (% of reduction)","[4]; Dodecanal, 15 μM",1%
same,"percentage of gene editing, GFP fluorescence intensity decrease (% of reduction)","[4]; Myristoleyl, 5 μM",7%
same,"percentage of gene editing, GFP fluorescence intensity decrease (% of reduction)","[4]; Myristoleyl, 10 μM",10%
same,"percentage of gene editing, GFP fluorescence intensity decrease (% of reduction)","[4]; Myristoleyl, 15 μM",12%
same,"percentage of gene editing, GFP fluorescence intensity decrease (% of reduction)","[4]; Oleyl, 5 μM",−9%
same,"percentage of gene editing, GFP fluorescence intensity decrease (% of reduction)","[4]; Oleyl, 15 μM",−1%
same,"percentage of gene editing, GFP fluorescence intensity decrease (% of reduction)","[4]; Palmitoleyl, 5 μM",27%
same,"percentage of gene editing, GFP fluorescence intensity decrease (% of reduction)","[4]; Palmitoleyl, 10 μM",33%
same,"percentage of gene editing, GFP fluorescence intensity decrease (% of reduction)","[4]; Palmitoleyl, 15 μM",13%
same,"percentage of gene editing, GFP fluorescence intensity decrease (% of reduction)","[4]; Petroselinyl, 5 μM",23%
same,"percentage of gene editing, GFP fluorescence intensity decrease (% of reduction)","[4]; Petroselinyl, 10 μM",22%
same,"percentage of gene editing, GFP fluorescence intensity decrease (% of reduction)","[4]; Petroselinyl, 15 μM",7%
"Ac-RK*LRRK*L-NH2 (Ac-RK(NHNH2)LRRK(NHNH2)L-NH2; not fully specified; printed as Ac-RK*LRRK*L-NH2; also: K*2,K*6: native or modified lysine (ε-amide to a linker)) [Peptide 7.2]",percentage of GFP-silencing relative to siMOCK,"[1]; Dodecanal, 5 μM",5%
same,percentage of GFP-silencing relative to siMOCK,"[1]; Dodecanal, 10 μM",11%
same,percentage of GFP-silencing relative to siMOCK,"[1]; Dodecanal, 15 μM",8%
same,percentage of GFP-silencing relative to siMOCK,"[1]; Myristoleyl, 5 μM",8%
same,percentage of GFP-silencing relative to siMOCK,"[1]; Myristoleyl, 10 μM",14%
same,percentage of GFP-silencing relative to siMOCK,"[1]; Myristoleyl, 15 μM",16%
same,percentage of GFP-silencing relative to siMOCK,"[2]; Dodecanal, 5 μM",4%
same,percentage of GFP-silencing relative to siMOCK,"[2]; Dodecanal, 10 μM",10%
same,percentage of GFP-silencing relative to siMOCK,"[2]; Dodecanal, 15 μM",20%
same,percentage of GFP-silencing relative to siMOCK,"[2]; Myristoleyl, 5 μM",14%
same,percentage of GFP-silencing relative to siMOCK,"[2]; Myristoleyl, 10 μM",28%
same,percentage of GFP-silencing relative to siMOCK,"[3]; Dodecanal, 15 μM",7%
same,percentage of GFP-silencing relative to siMOCK,"[3]; Myristoleyl, 5 μM",−8%
same,"percentage of gene editing, GFP fluorescence intensity decrease (% of reduction)","[4]; Dodecanal, 10 μM",−3%
same,"percentage of gene editing, GFP fluorescence intensity decrease (% of reduction)","[4]; Dodecanal, 15 μM",−13%
same,"percentage of gene editing, GFP fluorescence intensity decrease (% of reduction)","[4]; Myristoleyl, 5 μM",3%
same,"percentage of gene editing, GFP fluorescence intensity decrease (% of reduction)","[4]; Myristoleyl, 10 μM",7%
same,"percentage of gene editing, GFP fluorescence intensity decrease (% of reduction)","[4]; Myristoleyl, 15 μM",7%
